ChEMBL document CHEMBL5505999, “Discovery of anti-inflammatory agents from 3, 4-dihydronaphthalene-1(2H)-one derivatives by inhibiting NLRP3 inflammasome activation” (Eur J Med Chem, 2024)
Active and inactive are the calls of the source. The rule behind the calls is not given here.

Legend:
[1] = system: RAW264.7; experiment: Inhibition of NF-kappaB signaling pathway in mouse RAW264.7 cells assessed as reduction in p65 phosphorylation preincubated with compound for 2 hrs followed by LPS addition and measured after 22 hrs by Western blot analysis; format: cell-based; settings: dose 1.5-6 µM, time 24.0 hrs
[2] = system: RAW264.7; experiment: Anti-inflammatory activity in mouse RAW264.7 cells assessed as inhibition of LPS-induced IL-6 production at 2.5 uM pretreated with compound for 2 hrs followed by LPS addition and measured after 22 hrs by ELISA relative to control; format: functional; settings: time 24 hrs
[3] = biological target: NACHT, LRR and PYD domains-containing protein 3 (Mus musculus) (UniProt Q8R4B8); experiment: Inhibition of NLRP3 inflammasome activation in LPS-induced mouse RAW264.7 cells assessed as reduction in ROS production by measuring intracellular ROS level at 1.5 uM incubated for 24 hrs by DCFH-DA staining based flow cytometric analysis (reference value: 42.0%); format: cell-based; set-up: scale not given: the % may be the effect or the level left
[4] = system: RAW264.7; experiment: Anti-inflammatory activity in mouse RAW264.7 cells assessed as inhibition of LPS-induced TNF-alpha production pretreated with compound for 2 hrs followed by LPS addition and measured after 22 hrs by ELISA; format: functional, cell-based; settings: dose 1.5-6 µM, time 24.0 hrs
[5] = Cytotoxicity against mouse RAW264.7 cells assessed as survival rate at 2.5 uM incubated overnight by CCK-8 assay relative to control; format: toxicity, cell-based; settings: read-out: Survival
[6] = system: RAW264.7; experiment: Induction of apoptosis in mouse RAW264.7 cells assessed as apoptotic cells at 1.5 uM by Annexin V-FITC/PI staining based flow cytometric analysis (reference value: 1.9%); format: toxicity, cell-based; settings: raw264.7, 1.5 µM
[7] = system: RAW264.7; experiment: Inhibition of NF-kappaB signaling pathway in mouse RAW264.7 cells assessed as reduction in IkappaBalpha phosphorylation preincubated with compound for 2 hrs followed by LPS addition and measured after 22 hrs by Western blot analysis; format: cell-based; settings: dose 1.5-6 µM, time 24.0 hrs
[8] = Induction of apoptosis in mouse RAW264.7 cells assessed as viable cells at 6.0 uM by Annexin V-FITC/PI staining based flow cytometric analysis (reference value: 96.4%); format: toxicity, cell-based; settings: read-out: Activity
[9] = biological target: NACHT, LRR and PYD domains-containing protein 3 (Mus musculus) (UniProt Q8R4B8); experiment: Inhibition of NLRP3 inflammasome activation in mouse RAW264.7 cells assessed as reduction in NLRP3 expression at 1.5 to 6.0 uM preincubated with compound for 2 hrs followed by LPS addition and measured after 30 mins by Western blot analysis; format: cell-based; settings: dose 1.5-6 µM, time 2.5 hrs
[10] = system: RAW264.7; experiment: Anti-inflammatory activity in mouse RAW264.7 cells assessed as inhibition of LPS-induced IL-6 production pretreated with compound for 2 hrs followed by LPS addition and measured after 22 hrs by ELISA; format: functional, cell-based; settings: dose 1.5-6 µM, time 24.0 hrs
[11] = biological target: NACHT, LRR and PYD domains-containing protein 3 (Mus musculus) (UniProt Q8R4B8); experiment: Inhibition of NLRP3 inflammasome activation in mouse RAW264.7 cells assessed as reduction in ASC expression at 1.5 to 6.0 uM preincubated with compound for 2 hrs followed by LPS addition and measured after 30 mins by Western blot analysis; format: cell-based; settings: dose 1.5-6 µM, time 2.5 hrs
[12] = biological target: NACHT, LRR and PYD domains-containing protein 3 (Mus musculus) (UniProt Q8R4B8); experiment: Inhibition of NLRP3 inflammasome activation in LPS-induced mouse RAW264.7 cells assessed as reduction in ROS production by measuring intracellular ROS level at 3.0 uM incubated for 24 hrs by DCFH-DA staining based flow cytometric analysis (reference value: 42.0%); format: cell-based; set-up: scale not given: the % may be the effect or the level left
[13] = biological target: NACHT, LRR and PYD domains-containing protein 3 (Mus musculus) (UniProt Q8R4B8); experiment: Inhibition of NLRP3 inflammasome activation in LPS-induced mouse RAW264.7 cells assessed as reduction in ROS production by measuring intracellular ROS level at 6.0 uM incubated for 24 hrs by DCFH-DA staining based flow cytometric analysis (reference value: 42.0%); format: cell-based; set-up: scale not given: the % may be the effect or the level left
[14] = biological target: Transcription factor p65 (Mus musculus) (UniProt Q04207); experiment: Inhibition of NF-kappaB p65 nuclear translocation in LPS-induced mouse RAW264.7 cells assessed as increase in p65 subunits in cytoplasm at 6.0 uM preincubated with compound for 2 hrs followed by LPS addition and measured after 2 hrs by DAPI staining based Zeiss laser confocal microscopic analysis; format: cell-based; settings: time 4.0 hrs
[15] = system: RAW264.7; experiment: Induction of apoptosis in mouse RAW264.7 cells assessed as apoptotic cells at 6.0 uM by Annexin V-FITC/PI staining based flow cytometric analysis (reference value: 1.9%); format: toxicity, cell-based; settings: raw264.7, 6 µM
[16] = system: RAW264.7; experiment: Anti-inflammatory activity in mouse RAW264.7 cells assessed as inhibition of LPS-induced TNF-alpha production at 2.5 uM pretreated with compound for 2 hrs followed by LPS addition and measured after 22 hrs by ELISA relative to control; format: functional; settings: time 24 hrs
[17] = biological target: NACHT, LRR and PYD domains-containing protein 3 (Mus musculus) (UniProt Q8R4B8); experiment: Inhibition of NLRP3 inflammasome activation in LPS-induced mouse RAW264.7 cells assessed as reduction in NO production incubated for 24 hrs by Griess reagent based assay; format: cell-based; settings: dose 1.5-6 µM
[18] = system: RAW264.7; experiment: Anti-inflammatory activity in mouse RAW264.7 cells assessed as inhibition of LPS-induced IL-1beta production pretreated with compound for 2 hrs followed by LPS addition for 22 hrs and measured 30 mins after LPS addition by ELISA; format: functional, cell-based; settings: dose 1.5-6 µM, time 24.5 hrs
[19] = system: RAW264.7; experiment: Induction of apoptosis in mouse RAW264.7 cells assessed as apoptotic cells at 3.0 uM by Annexin V-FITC/PI staining based flow cytometric analysis (reference value: 1.9%); format: toxicity, cell-based; settings: raw264.7, 3 µM
[20] = Induction of apoptosis in mouse RAW264.7 cells assessed as viable cells at 3.0 uM by Annexin V-FITC/PI staining based flow cytometric analysis (reference value: 96.4%); format: toxicity, cell-based; settings: read-out: Activity
[21] = system: RAW264.7; experiment: Anti-inflammatory activity in mouse RAW264.7 cells assessed as inhibition of LPS-induced IL-18 production pretreated with compound for 2 hrs followed by LPS addition for 22 hrs and measured 30 mins after LPS addition by ELISA; format: functional, cell-based; settings: dose 1.5-6 µM, time 24.5 hrs
[22] = Induction of apoptosis in mouse RAW264.7 cells assessed as viable cells at 1.5 uM by Annexin V-FITC/PI staining based flow cytometric analysis (reference value: 96.4%); format: toxicity, cell-based; settings: read-out: Activity

NACHT, LRR and PYD domains-containing protein 3 (Mus musculus), sequence (Q8R4B8 whole entry, the tested form may be a part): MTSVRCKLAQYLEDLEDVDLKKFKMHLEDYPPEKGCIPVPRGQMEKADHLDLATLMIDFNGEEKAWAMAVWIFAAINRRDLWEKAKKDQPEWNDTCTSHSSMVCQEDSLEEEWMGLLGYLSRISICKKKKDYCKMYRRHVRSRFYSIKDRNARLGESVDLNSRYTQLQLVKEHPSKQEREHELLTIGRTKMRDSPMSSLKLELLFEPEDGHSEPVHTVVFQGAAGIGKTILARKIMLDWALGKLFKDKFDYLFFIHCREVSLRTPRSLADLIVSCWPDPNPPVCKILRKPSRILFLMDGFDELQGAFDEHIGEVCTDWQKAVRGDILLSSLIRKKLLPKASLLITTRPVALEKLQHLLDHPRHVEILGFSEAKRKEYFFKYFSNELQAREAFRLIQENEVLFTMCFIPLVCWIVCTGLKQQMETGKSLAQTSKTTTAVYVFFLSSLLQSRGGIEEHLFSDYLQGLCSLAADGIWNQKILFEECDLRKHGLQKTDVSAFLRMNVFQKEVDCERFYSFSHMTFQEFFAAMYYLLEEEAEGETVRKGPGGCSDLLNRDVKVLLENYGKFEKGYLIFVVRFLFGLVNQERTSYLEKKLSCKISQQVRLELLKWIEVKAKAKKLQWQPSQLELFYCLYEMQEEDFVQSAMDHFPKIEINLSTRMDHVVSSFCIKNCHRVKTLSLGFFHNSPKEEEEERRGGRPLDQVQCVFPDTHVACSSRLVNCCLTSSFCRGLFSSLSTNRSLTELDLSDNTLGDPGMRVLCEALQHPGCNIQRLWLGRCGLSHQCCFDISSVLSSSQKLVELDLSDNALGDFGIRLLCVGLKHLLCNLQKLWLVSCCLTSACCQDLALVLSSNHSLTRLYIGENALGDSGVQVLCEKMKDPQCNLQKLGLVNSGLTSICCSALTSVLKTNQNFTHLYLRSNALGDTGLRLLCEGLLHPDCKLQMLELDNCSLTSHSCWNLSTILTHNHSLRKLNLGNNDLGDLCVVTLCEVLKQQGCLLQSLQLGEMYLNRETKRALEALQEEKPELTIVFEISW
Transcription factor p65 (Mus musculus), sequence (Q04207 whole entry): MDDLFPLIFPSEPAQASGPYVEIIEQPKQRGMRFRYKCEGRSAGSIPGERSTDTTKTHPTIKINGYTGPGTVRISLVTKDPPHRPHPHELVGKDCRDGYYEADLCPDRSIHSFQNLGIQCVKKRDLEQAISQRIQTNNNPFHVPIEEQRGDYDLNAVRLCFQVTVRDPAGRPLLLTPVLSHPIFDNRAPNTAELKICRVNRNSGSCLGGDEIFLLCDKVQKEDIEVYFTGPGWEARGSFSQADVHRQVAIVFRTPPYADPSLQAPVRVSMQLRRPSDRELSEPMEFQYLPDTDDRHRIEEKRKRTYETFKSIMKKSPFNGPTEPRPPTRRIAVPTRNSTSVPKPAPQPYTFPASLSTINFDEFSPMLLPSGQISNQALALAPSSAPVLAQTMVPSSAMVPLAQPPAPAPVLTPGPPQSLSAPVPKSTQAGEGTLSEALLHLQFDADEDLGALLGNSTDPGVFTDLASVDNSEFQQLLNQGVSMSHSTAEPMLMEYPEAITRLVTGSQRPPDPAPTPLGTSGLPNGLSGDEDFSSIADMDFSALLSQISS

CN1CCN(c2ccc(/C=C3\CCc4ccc(Br)cc4C3=O)nc2)CC1
inhibition [1]: Dose-Dependent Effect | inhibition at 2.5 µM [2]: 69.2% | Activity [3]: 36.4% | Activity [4]: Dose-Dependent Effect | viability at 2.5 µM [5]: 108% | Activity [6]: 3.8% | inhibition [7]: Dose-Dependent Effect | viability at 6 µM [8]: 91.6% | inhibition [9]: Active | Activity [10]: Dose-Dependent Effect | inhibition [11]: Active | Activity [12]: 31.8% | Activity [13]: 19.9% | inhibition [14]: Active | Activity [15]: 6.8% | inhibition at 2.5 µM [16]: 81.4% | inhibition [17]: Dose-Dependent Effect | Activity [18]: Dose-Dependent Effect | Activity [19]: 5.6% | viability at 3 µM [20]: 92.8% | Activity [21]: Dose-Dependent Effect | viability at 1.5 µM [22]: 94.4%
